pIC50: −log10 of the molar value.
Experiments:
Type in all cases: cell-based
22RV1 cells = experiment: 22RV1 cell proliferation inhibition, CCK-8; details: 22RV1, 7 days
Description: The complete medium required for 22RV1 cells is RPM11640 (ATCC, Product number: 30-2001) basal medium containing 10% fetal bovine serum. 22RV1 cells were seeded in a 96-well plate at a density of 4,000 cells/well, and the next day, different concentrations of the compound of the present invention and the positive control sample JQ1 (source: Bide Pharmaceuticals) were prepared to treat the cells, and the cells were cultured at 37° C. and 5% CO2 for 7 days in the incubator. Cell viability was detected using the CCK-8 kit (Beyotime, Product number: C0040) according to the manufacturer's instructions. According to the inhibition rate, the GraphPad Prism software was used to calculate the IC50 value of each compound for 7 days, and the results are shown in Table 4.

MCF-7 cells = experiment: MCF-7 cell proliferation inhibition, CCK-8; details: Homo sapiens, MCF7, 216 h, MCF-7, 9 days
Description: The complete medium required for MCF-7 cells is DMEM (gibco, Product number: 11995-065) basal medium containing 10% fetal bovine serum. MCF-7 cells were seeded in a 96-well plate at a density of 800/well, and different concentrations of the compound of the present invention and the positive control sample ARV-471 (source: Enochem) were prepared to treat the cells. The cells were incubated at 37° C., 5% 9 days in a CO2 cell incubator. Cell viability was detected using the CCK-8 kit (Beyotime, Product number: C0040) according to the manufacturer's instructions. According to the inhibition rate, GraphPadPrism software was used to calculate the IC50 value of each compound for 9 days, and the results are shown in Table 18.

T-47D cells = experiment: T-47D cell proliferation inhibition, CCK-8; details: Homo sapiens, T47D, 144 h, 6 days
Description: The complete medium required for T-47D cells is 1640 (ATCC, Product number: A10491-01) basal medium containing 10% fetal bovine serum. T-47D cells were seeded in a 96-well plate at a density of 3,000/well, and different concentrations of the compound of the present invention and the positive control sample ARV-471 (source: Innochem) were prepared to treat the cells. The cells were incubated at 37° C., 5% for 6 days in a CO2 cell incubator. Cell viability was detected using the CCK-8 kit (Beyotime, Product number: C0040) according to the manufacturer's instructions. According to the inhibition rate, the GraphPadPrism software was used to calculate the IC50 value of each compound for 6 days, and the results are shown in Table 17.

Cc1sc2c(c1C)C(c1ccc(Cl)cc1)=N[C@@H](CC(=O)OC(C)(C)C)c1nnc(C)n1-2 [JQ1, reference compound]
pIC50 (22RV1 cells): 7.36

O=C1CCC(N2Cc3cc4c(cc3C2=O)CCC2(CN(C3CCC5(CC3)CN(c3ccc([C@@H]6c7ccc(O)cc7CC[C@@H]6c6ccccc6)cc3)C5)C2)O4)C(=O)N1 (stereo partly drawn) [PROTAC 55, 3-(1-(2-(4-((1R,2S)-6-hydroxy-2-phenyl-1,2,3,4-tetrahydronaphthalen-1-yl)phenyl)-2-azaspiro [3.5]non-7-yl)-6′-oxo-3′,4′,6′,8′-tetrahydro-7′H-spiro[azetidine-3,2′-pyrano[2,3-f]isoindol]-7′-yl)piperidine-2,6-dione]
pIC50 (MCF-7 cells): 7.40
pIC50 (T-47D cells): 8.18

O=C1CCC(N2Cc3cc4c(cc3C2=O)CCC2(CN(C3CC5(CCN(c6ccc([C@@H]7c8ccc(O)cc8CC[C@@H]7c7ccccc7)cc6)CC5)C3)C2)O4)C(=O)N1 (stereo partly drawn) [PROTAC 56, 3-(1-(7-(4-((1R,2S)-6-hydroxy-2-phenyl-1,2,3,4-tetrahydronaphthalen-1-yl)phenyl)-7-azaspiro[3.5]non-2-yl)-6′-oxo-3′,4′,6′,8′-tetrahydro-7′H-spiro[azetidine-3,2′-pyrano[2,3-f]isoindol]-7′-yl)piperidine-2,6-dione]
pIC50 (MCF-7 cells): 7.15
pIC50 (T-47D cells): 8.80

O=C1CCC(N2Cc3cc4c(cc3C2=O)CCC2(CCN(C3CC5(CCN(c6ccc([C@@H]7c8ccc(O)cc8CC[C@@H]7c7ccccc7)cc6)CC5)C3)CC2)O4)C(=O)N1 (stereo partly drawn) [PROTAC 57, 3-(1-(7-(4-((1R,2S)-6-hydroxy-2-phenyl-1,2,3,4-tetrahydronaphthalen-1-yl)phenyl)-7-nitrogenheterospiro[3.5]non-2-yl)-6′-oxo-3′,4′,6′,8′-tetrahydro-7′H-spiro[piperidin-4,2′-pyrano [2,3-f]isoindole]-7′-yl)piperidine-2,6-dione]
pIC50 (MCF-7 cells): 8.00
pIC50 (T-47D cells): 8.70

O=C1CCC(N2Cc3cc4c(cc3C2=O)OCC2(CCN(C3CC5(CCN(c6ccc([C@@H]7c8ccc(O)cc8CC[C@@H]7c7ccccc7)cc6)CC5)C3)CC2)O4)C(=O)N1 (stereo partly drawn) [PROTAC 58, 3-(1-(7-(4-((1R,2S)-6-hydroxy-2-phenyl-1,2,3,4-tetrahydronaphthalen-1-yl)phenyl)-7-azaspiro [3.5]non-2-yl)-6′-oxo-6′,8′-dihydro-3′H,7′H-spiro[piperidine-4,2′-[1,4]dioxino[2,3-f]isoindol]-7′-yl)piperidine-2,6-dione]
pIC50 (MCF-7 cells): 7.70
pIC50 (T-47D cells): 9.00

O=C1CCC(N2Cc3ccc4c(c3C2=O)OCC2(CCN(C3CCC5(CC3)CCN(c3ccc([C@@H]6c7ccc(O)cc7CC[C@@H]6c6ccccc6)cc3)CC5)CC2)C4)C(=O)N1 (stereo partly drawn) [PROTAC 59, 3-(1-(3-(4-((1R,2S)-6-hydroxy-2-phenyl-1,2,3,4-tetrahydronaphthalen-1-yl)phenyl)-3-azaspiro[5.5]undec-9-yl)-9′-oxo-7′,9′-dihydro-2′H-spiro[piperidin-4,3′-pyrano[2,3-f]isoindole]-8′(4′H)-yl)piperidine-2,6-dione]
pIC50 (MCF-7 cells): 6.89
pIC50 (T-47D cells): 8.28

Source: patent US20250129088A1, “CEREBLON E3 UBIQUITIN LIGASE INHIBITOR” (Gan & Lee Pharmaceuticals Co., Ltd., priority 2022, published 2025)
